Source: patent US9879036B2, “Mitochondrial aldehyde dehydrogenase-2 binding compounds and methods of use thereof” (Aviv Therapeutics, Inc., priority 2014, dated 2018)
Positions count from the first letter of the chain named.

Assays:
Format in all cases: biochemical
ALDH2*1/*1 = molecular target: T1, ALDH2*1/*1 (Homo sapiens, UniProt P05091); assay: ALDH2 enzymatic activity, NADH accumulation at 340 nm, acetaldehyde substrate, wild type; settings: relative to baseline enzymatic activity (100%); for activity at 2.5 µM: 2.5 μM compound; for activity at 5 µM: 5 μM compound; for activity at 10 µM: 10 μM compound; for activity at 20 µM: 20 μM compound
T1 construct: His-tag (N); made in house; host or cells: E. coli BL21 (pTrcHis vector)
T1 sequence (P05091 18-517): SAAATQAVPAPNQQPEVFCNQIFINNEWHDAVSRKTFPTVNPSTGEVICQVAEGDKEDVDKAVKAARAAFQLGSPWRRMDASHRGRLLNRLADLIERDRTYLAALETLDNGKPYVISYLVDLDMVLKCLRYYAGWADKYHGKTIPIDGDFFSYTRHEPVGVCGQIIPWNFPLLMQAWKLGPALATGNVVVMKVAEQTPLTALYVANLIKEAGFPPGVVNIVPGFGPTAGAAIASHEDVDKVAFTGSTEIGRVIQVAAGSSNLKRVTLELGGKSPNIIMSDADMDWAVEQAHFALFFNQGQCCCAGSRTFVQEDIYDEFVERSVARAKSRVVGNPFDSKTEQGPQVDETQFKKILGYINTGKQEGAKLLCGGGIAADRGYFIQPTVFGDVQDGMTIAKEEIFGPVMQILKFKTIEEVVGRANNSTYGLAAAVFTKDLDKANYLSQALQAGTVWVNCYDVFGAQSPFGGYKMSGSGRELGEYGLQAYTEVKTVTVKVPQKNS
Description: (§1) ALDH2 catalyzes the oxidative reaction of substrate acetaldehyde to acetic acid using NAD^+ as a cofactor. Enzymatic activity, or catalytic rate, of aldehyde dehydrogenase (ALDH2) are measured spectrophotometrically at UV wavelength λ340 nm by the accumulation of reduced product NADH derived from NAD^+. Absorbance at λ340 nm is quantitatively proportional to the amount of NADH being produced over time (6.22 O.D. unit=1 mmol of NADH, measured in a 1-cm width standard cuvette). This method is well-established in the literature [e.g. Rex et al., Alcohol Clin. Exp. Res. 9, 147 (1985)].
as §1, with “can be” for “are”
(§2) Cloning, expression and purification of human ALDH2 wild type and ALDH2*2 recombinant mutant enzymes: Full-length wild type human ALDH2 cDNA was purchased from ATCC (No. MGC-1806. GenBank ID: BC002967). The 18-amino acid mitochondria transport signal sequence was removed by PCR and cloned into the NheI/HindIII sites of a His-tag vector, pTrcHis, using standard molecular cloning techniques. The human ALDH2* cDNA construct containing the Asian E487K mutation was obtained by site-directed mutagenesis to create the E487K substitution of the wild type ALDH2. Both human clones were designed to express a recombinant protein with the His-tag at the N-terminus of the protein. For the co-expression experiments of human ALDH2 wild type and ALDH2*2 heterotetramers, a wild type ALDH2 gene and a ALDH2 E487K gene were inserted separately into the two multiple cloning sites of pETDuet-1 vector. (Novagen, CA, USA). All the vectors were transformed into BL21 E. coli host cells and subjected to 0.5 mM IPTG induction for protein expression at 30° C. Purifications of the recombinant proteins by affinity nickel columns (HisTrap, GE Healthy Science, USA) were carried out using standard protocols according to manufacturer's instructions (Novagen, USA).
(§3) ALDH2 catalyzes the oxidative reaction of substrate acetaldehyde to acetic acid using NAD^+ as a cofactor. Enzymatic activity, or catalytic rate, of aldehyde dehydrogenase (ALDH2) can be measured spectrophotometrically at UV wavelength λ340 nm by the accumulation of reduced product NADH derived from NAD^+. Because compounds of formula (I) are considered to be agonists or “activators” of ALDH2 the enzymatic activity measured will exceed 100% of the baseline enzymatic activity of the enzyme in its normal activation state. As the concentration of the compounds of formula (I) decreases from 20 micromolar to 0.16 micromolar in the presence of ALDH, a decrease in the activation of enzymatic activity is observed for the wild-type ALDH2*1/*1 and the heterozygous form ALDH2*1/*2.

ALDH2 = molecular target: T2, ALDH2 (Homo sapiens, UniProt P05091); assay: ALDH2 activity with 20 μM of the compound (Table 3); settings: 20 μM compound
T2 construct: His-tag (N); made in house; host or cells: E. coli BL21
T2 sequence (P05091 18-517): T1 sequence (P05091 18-517)
Description: as §1
as §1, with “can be” for “are”
as §3

ALDH2*1/*2 = molecular target: T3, ALDH2*1/*2 (Homo sapiens, UniProt P05091, E504K); assay: ALDH2 enzymatic activity, NADH accumulation at 340 nm, acetaldehyde substrate, heterozygous form; settings: relative to baseline enzymatic activity (100%); for activity at 2.5 µM: 2.5 μM compound; for activity at 5 µM: 5 μM compound; for activity at 10 µM: 10 μM compound; for activity at 20 µM: 20 μM compound
T3 construct: His-tag; made in house; host or cells: E. coli BL21 (pETDuet-1 co-expression)
T3 sequence (P05091 18-517): T1 sequence (P05091 18-517)
T3 sequence (P05091 18-517 E504K): T1 sequence (P05091 18-517) with E487K
Description: as §1
as §1, with “can be” for “are”
as §2, §3

Row | SMILES | activity at 2.5 µM (ALDH2*1/*1) [%] | activity at 5 µM (ALDH2*1/*1) [%] | activity at 10 µM (ALDH2*1/*1) [%] | activity at 20 µM (ALDH2*1/*1) [%] | activity at 20 µM (ALDH2) [%] | activity at 2.5 µM (ALDH2*1/*2) [%] | activity at 5 µM (ALDH2*1/*2) [%] | activity at 10 µM (ALDH2*1/*2) [%] | activity at 20 µM (ALDH2*1/*2) [%]
1 | COc1ccc(CNC(=O)c2cc(-c3ccc(F)cc3CO)cnc2OCC2CC2)cc1F [AC4] | 204 | 280 | 300 | 363 | > 250 | 266 | 338 | 390 | 423
2 | COc1ccc(CNC(=O)c2cc(-c3ncccc3CO)cnc2OCC2CC2)cc1F [AC8] | 164 | 223 | 319 | 370 | > 250 | 221 | 299 | 328 | 479
3 | COc1ccc(CNC(=O)c2cc(-c3c(CO)cccc3N(C)C)cnc2OCC2CC2)cc1F [AC15] | 124 | 106 | 143 | 169 | 150 to 250 | 105 | 129 | 160 | 203
4 | COc1ccc(CNC(=O)c2cc(-c3cnccc3CO)cnc2OCC2CC2)cc1F [AC10] | 172 | 238 | 346 | 414 | > 250 | 239 | 321 | 388 | 531
5 | COc1ccc(CNC(=O)c2cc(-c3c(CO)cccc3N(C)C)ccc2OCC2CC2)cc1F [AC16] | 106 | 106 | 105 | 133 | 100 to 150 | 104 | 116 | 126 | 138
6 | COc1ccc(CNC(=O)c2cc(-c3ccncc3CO)cnc2OCC2CC2)cc1F [AC12] | 166 | 211 | 305 | 379 | > 250 | 179 | 236 | 286 | 350
7 | COc1ccc(CNC(=O)c2cc(-c3ccccc3CO)ccc2OCC2CC2)cc1F [AC2, 4-(cyclopropylmethoxy)-N-(3-fluoro-4-methoxybenzyl)-2′-(hydroxymethyl)-[1,1′-biphenyl]-3-carboxamide] | 215 | 275 | 328 | 443 | > 250 | 256 | 338 | 408 | 471
8 | COc1ccc(CNC(=O)c2cc(-c3ccncc3CO)ccc2OCC2CC2)cc1F [AC9] | 218 | 276 | 354 | 376 | > 250 | 224 | 287 | 317 | 402
9 | COc1ccc(CNC(=O)c2cc(-c3cnccc3CO)ccc2OCC2CC2)cc1F [AC5] | 266 | 330 | 352 | 487 | > 250 | 318 | 382 | 428 | 504

Next, values leading:

Row | activity at 2.5 µM (ALDH2*1/*1) [%] | activity at 5 µM (ALDH2*1/*1) [%] | activity at 10 µM (ALDH2*1/*1) [%] | activity at 20 µM (ALDH2*1/*1) [%] | activity at 20 µM (ALDH2) [%] | activity at 2.5 µM (ALDH2*1/*2) [%] | activity at 5 µM (ALDH2*1/*2) [%] | activity at 10 µM (ALDH2*1/*2) [%] | activity at 20 µM (ALDH2*1/*2) [%] | SMILES
10 | 119 | 131 | 171 | 187 | 150 to 250 | 127 | 145 | 172 | 197 | COc1ccc(CNC(=O)c2cc(-c3cccc(F)c3CO)cnc2OCC2CC2)cc1F [AC18]
11 | 170 | 238 | 308 | 403 | > 250 | 157 | 218 | 255 | 93 | COc1ccc(CNC(=O)c2cc(-c3cc(F)ccc3CO)cnc2OCC2CC2)cc1F [AC20]
12 | 161 | 209 | 272 | 370 | > 250 | 110 | 198 | 247 | 250 | COc1ccc(CNC(=O)c2cc(-c3cccc(F)c3CO)ccc2OCC2CC2)cc1F [AC21]
13 | 175 | 248 | 321 | 428 | > 250 | 149 | 234 | 269 | 216 | COc1ccc(CNC(=O)c2cc(-c3cscc3CO)cnc2OCC2CC2)cc1F [AC24]
14 | 172 | 263 | 313 | 437 | > 250 | 160 | 194 | 253 | 143 | COc1ccc(CNC(=O)c2cc(-c3c(F)cccc3CO)ccc2OCC2CC2)cc1F [AC22]
15 | 210 | 262 | 291 | 375 | > 250 | 187 | 252 | 263 | 196 | COc1ccc(CNC(=O)c2cc(-c3ccc(F)cc3CO)ccc2OCC2CC2)cc1F [AC23]
